Assays:
Type in all cases: in vivo
[1] = tested on: 5-MDMT induced symptoms; assay: Anti-5HT activity: inhibition of 5-methoxy-N,N-dimethyltryptamine induced symptoms in mice; settings: Mouse, p.o., pretreated 1 h before 10 mg/kg ip 5-methoxy-N,N-dimethyltryptamine, dose inhibiting symptoms by 50%; for ED50: po
Procedure: (§1) Mice (♂ CD^-1 Charles Rine) are pretreated with the compounds 10 animals/group under investigation and 1 h later one group is injected with 10 mg/kg ip 5-methoxy-N,N-dimethyltryptamioe (Sigma). The symptoms of fore- paw tapping movements, head jerks and splayed limbs are scored: 1, present; O, absent, giving a maximum score of 3/mouse or 30/group. Results are expressed as the percentage inhibition compared to the group treated with 5-methoxy-N,N-dimethyl tryptamine alone. The dose of compound inhibiting the symptoms by 50% is determined graphically.

[2] = tested on: 5-MDMT induced symptoms; assay: Anti-5HT activity: inhibition of 5-MDMT induced symptoms in rats; settings: Rat; for ED50: po
Procedure: [The procedure below names another organism; the source lists this organism under the same test.] as §1

[3] = tested on: post-synaptic Dopamine (D.A.) receptors; assay: Dopamine receptor blocking activity in the CNS: inhibition of apomorphine induced climbing; settings: male CDl mice, p.o., apomorphine 1 mg/kg subcutaneous
Procedure: The test is based on that described by Protais, P., Constantin, J. and Schwartz J.C. (1976), Psychopharmacology, 50, 1-6.
When mice are given a dose of 1 mg/kg apomorphine and then placed in an enclosed environment, such as an inverted wire cage, they are seen to climb around the walls. This behavioural phenomenon is thought to be a consequence of the stimulation of post-synaptic Dopamine (D.A.) receptors in the nucleus accumbens. Inhibition of apomorphine induced climbing is therefore indicative of post-synaptic D.A. receptor blockade in the accumbens.
Groups of 10 male CDl mice, weighing 25-30 g were pre-treated orally with either graded doses of the test compound or vehicle, at appropriate time intervals before the subcutaneous administration of a sub-maximal dose of apomorphine (1 mg/kg). Immediately after the apomorphine injection the mice were placed in wire 'climbing cages' and each animal was scored for climbing behavour at 10 and 20 minutes post apomorphine as follows:- • Four paws on cage floor = O • Fore paws on cage wall = 1 • Four paws on cage wall = 2 […]

Compound	ED50 [1]	ED50 [2]	further results
COc1cc(N)c(Cl)cc1C(=O)NC1CC2CCC(C1)N2CCC(C)C (stereo not drawn) [Example 5, 4-Amino-5-chloro-2-methoxy-N-[3-β-(8-isopentyl-8-azabicyclo(3,2,1)octyl)] benzamide]	8 mg/kg	–	–
4-Amino-5-chloro-2-methoxy-N-[3-β-(8-cyclopropylmethyl-8-azabicyclo (3,2,1)octyl]benzamide [Example 3]	–	–	Anti 5-HT Activity Inhibition of 5-MDMT induced symptoms ([2]; at 10 mg/kg p.o.): 56% at 10; Anti 5-HT Activity Inhibition of 5-MDMT induced symptoms ED50 [1]: ED503 mg/kg
COc1cc(N)c(Cl)cc1C(=O)NC1CC2CCCC(C1)N2CC(C)(C)C (stereo not drawn) [Example 4, 4-Amino-5-chloro-2-mthoxy-N-[3-β-(9-neopentyl-9-azabicyclo (3,3,1)nonyl)]benzamide]	4.6 mg/kg	6.2 mg/kg	–
COc1cc(NC(C)=O)c(Cl)cc1C(=O)N[C@@H]1C[C@H]2CC[C@@H](C1)N2CC(C)(C)C [Example 1, 4-Aoetylamino-5-chloro-2-methoxy-N-[3-β-(8-neopentyl-8-azabicyclo (3,2,1)octyl)]benzamide]	2.4 mg/kg	10 mg/kg	ED50 inhibition of apomorphine - induced climbing [3]: 4 mg/kg
COc1cc(N)c(Br)cc1C(=O)NC1CC2CCC(C1)N2CC(C)(C)C (stereo not drawn) [Example 7, 4-Amino-5-bromo-2-methoxy-N-[3-β-(8-neopentyl-8-azabicyclo (3,2,1)octyl) ]benzamide]	4 mg/kg	–	–
COc1cc(N)c(Cl)cc1C(=O)NC1CC2CCC(C1)N2CC(C)(C)C (stereo not drawn) [Example 2, 4-Amino-5-chloro-2-methoxy-N-[3-β-(8-neopentyl-8-azabicyclo (3,2,1)octyl)] benzamide]	0.2 mg/kg	7.2 mg/kg	–
COc1cc(NC(C)=O)c(Cl)cc1C(=O)NC1CC2CCCC(C1)N2CC(C)(C)C (stereo not drawn) [Example 6]	–	10 mg/kg	–

Source: patent EP0099194A2, “Novel benzamides” (BEECHAM GROUP PLC, priority 1982, dated 1984)
